Test results from patent US6372297B1, “Wood preservative oxathiazines” (Uniroyal Chemical Company, Inc., priority 1993, dated 2002).

Key:
Type in all cases: cell-based
Pseudomonas aeruginosa = assay: Wood preservative efficacy against bacteria and yeasts, tryptose agar plates; parameters: key: 0 = growth equal to control, 1 = growth inhibited, 2 = no growth; conditions: 100 ppm in tryptose agar
Method: (§1) Compositions were prepared by dissolving the compounds shown in Table 1 in 50% ethanol and further diluting with sterile distilled water. […] After cooling, the medium was inoculated with the bacteria listed below. After sufficient growth of the untreated cultures, the compounds were evaluated using the following rating system: 0=growth equal to control 1=inhibition of growth by the compound 2=no growth under the influence of the compound. In this Table, the higher numbers are the most preferred species. Pseudomonas aeruginosa (gram neg)

Enterobacter aerogenes = assay: as above; parameters: key: 0 = growth equal to control, 1 = inhibition, 2 = no growth
Method: as §1, with “Enterobacter aerogenes” for “Pseudomonas aeruginosa”

Escherichia coli = assay: as above; parameters: key: 0 = growth equal to control, 1 = growth inhibited, 2 = no growth
Method: as §1, with “Escherichia coli” for “Pseudomonas aeruginosa”, “[…])” for “neg)”

Chaetomium globosum = assay: Wood preservative efficacy against fungi, agar plate colony diameter
Method: (§2) Each plate was inoculated with a spore suspension or with a small piece of agar (1 mm) from the margin of an actively growing colony of the test fungus. The fungi employed are listed below. After incubation at 22° C. and 70% relative humidity during a period long enough to allow significant growth of untreated controls, the diameters of the fungus colonies were measured and scored using the following rating system: 0=free of fungal growth 1=25% of fungal growth compared to untreated 2=50% of fungal growth compared to untreated 3=75% of fungal growth compared to untreated 4=Growth equal to that of untreated The scores measured for wood preservation efficacy of the compounds of this invention are listed in Tables 6a and 6b. In these Tables, the lower numbers are the most preferred species. Chaetomium globosum

Coriolus versicolor = assay: as above; conditions: for Score of fungicidal activity, C. VERSICLOR: Test dosage 10 ppm, Table 6A; for Score of fungicidal activity, G. VERSICLOR: Table 6B
Method: as §2, with “Coriolus versicolor” for “Chaetomium globosum”

Aspergillus niger = assay: as above
Method: as §2, with “Aspergillus niger” for “Chaetomium globosum”

Streptomyces albus = assay: Wood preservative efficacy against bacteria and yeasts, tryptose agar plates; parameters: key: 0 = growth equal to control, 1 = inhibition, 2 = no growth
Method: as §1, with “Streptomyces albus” for “Pseudomonas aeruginosa”, “pos)” for “neg)”

[1] = test system: molds and blue-stain fungi; assay: In vitro activity against molds and blue-stain fungi, poison plate assay (MIC); conditions: malt extract agar, complete inhibition
Method in brief: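 Poison plate format: compound diluted in sterile water and mixed into malt extract agar, then plates inoculated with each fungus. Growth inhibition scored at each concentration to give the MIC.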

Row | Structure (SMILES) | Score of bactericidal activity, P. aeruginosa (Pseudomonas aeruginosa) | Score of bactericidal activity, E. aerogenes (Enterobacter aerogenes; 100 ppm in tryptose agar) | Score of bactericidal activity, E. Coli (Escherichia coli; 100 ppm in tryptose agar) | Score of fungicidal activity, C. GLOBOSUM (Chaetomium globosum; Test dosage 10 ppm, Table 6A) | Score of fungicidal activity, C. VERSICLOR (Coriolus versicolor) | Score of fungicidal activity, A. NIGER (Aspergillus niger; Test dosage 10 ppm, Table 6A) | Score of bactericidal activity, S. albus (Streptomyces albus; 100 ppm in tryptose agar) | MIC (ppm) against A. amstelodami [1] | MIC (ppm) against A. niger [1] | MIC (ppm) against A. pullulans [1] | MIC (ppm) against A. versicolor [1] | MIC (ppm) against C. cladosporioides [1] | MIC (ppm) against C. pilifera [1] | MIC (ppm) against F. solani [1] | Score of bactericidal activity, E. aerogenes (Enterobacter aerogenes; 10 ppm in tryptose agar) | Score of bactericidal activity, E. Coli (Escherichia coli; 10 ppm in tryptose agar) | Score of fungicidal activity, C. GLOBOSUM (Chaetomium globosum; 10 ppm, Table 6B) | Score of fungicidal activity, G. VERSICLOR (Coriolus versicolor; 10 ppm) | Score of fungicidal activity, A. NIGER (Aspergillus niger; 10 ppm, Table 6B) | Score of bactericidal activity, S. albus (Streptomyces albus; 10 ppm in tryptose agar) | further results
1 | C[S+]1CCON=C1c1ccc(Cl)cc1 (stereo not drawn) [Compound 1] | 0 | 0 | 2 | 0 | 0 | 0 | 2 |  |  |  |  |  |  |  |  |  |  |  |  |  | 
2 | [O-][S+]1CCON=C1c1ccc(Cl)c(Cl)c1 (stereo not drawn) [Compound 4] | 0 | 0 | 2 | 0 | 0 | 0 | 2 | 10 ppm | 2.5 ppm | 10 ppm | 5 ppm | 10 ppm | 5 ppm | 10 ppm |  |  |  |  |  |  | MIC (ppm) against G. candidum [1]: 25 ppm; MIC (ppm) against P. purpurogenum [1]: 10 ppm; MIC (ppm) against P. variotii [1]: 10 ppm; MIC (ppm) against P. violacea [1]: 25 ppm; MIC (ppm) against S. atra [1]: 2.5 ppm; MIC (ppm) against S. entoxylina [1]: 10 ppm; MIC (ppm) against T. viride [1]: 25 ppm; MIC (ppm) against U. atrum [1]: 25 ppm
3 | [O-][S+]1CCON=C1c1cccs1 (stereo not drawn) [Compound 8] | 1 | 2 | 2 | 2 (50% of growth compared to untreated control) | 0 | 1 (25% of growth compared to untreated control) | 2 | 10 ppm | 25 ppm | >25 ppm | 10 ppm | >25 ppm | 5 ppm | 25 ppm |  |  |  |  |  |  | MIC (ppm) against G. candidum [1]: >25 ppm; MIC (ppm) against P. purpurogenum [1]: >25 ppm; MIC (ppm) against P. variotii [1]: >25 ppm; MIC (ppm) against P. violacea [1]: 25 ppm; MIC (ppm) against S. atra [1]: 10 ppm; MIC (ppm) against S. entoxylina [1]: 10 ppm; MIC (ppm) against T. viride [1]: >25 ppm; MIC (ppm) against U. atrum [1]: 25 ppm
4 | CC(=O)c1ccc(C2=NOCC[S+]2[O-])cc1 (stereo not drawn) [Compound 14] | 1 | 0 | 2 | 4 | 2 (50% of growth compared to untreated control) | 3 (75% of growth compared to untreated control) | 2 |  |  |  |  |  |  |  |  |  |  |  |  |  | 
5 | CCOC(=O)c1ccc(C2=NOCC[S+]2[O-])cc1 (stereo not drawn) [Compound 22] | 0 | 0 | 0 |  |  |  | 2 |  |  |  |  |  |  |  | 0 | 0 | 4 | 2 (50% of growth compared to untreated control) | 3 (75% of growth compared to untreated control) | 1 | 
6 | C[S+]1CCON=C1c1ccc(C(F)(F)F)cc1 (stereo not drawn) [Compound 25] | 0 | 0 | 0 |  |  |  | 2 |  |  |  |  |  |  |  | 0 | 0 | 3 (75% of growth compared to untreated control) | 0 | 0 | 2 | Score of fungicidal activity, G. VERSICLOR (Coriolus versicolor; 1 ppm): 3 (75% of growth compared to untreated control)
7 | COC(=O)c1cccc(C2=NOCC[S+]2[O-])c1 (stereo not drawn) [Compound 26] | 0 | 0 | 0 |  |  |  | 2 |  |  |  |  |  |  |  | 0 | 0 | 4 | 4 | 4 | 0 | 
8 | CCOc1ccc(C2=NOCC[S+]2C)cc1 (stereo not drawn) [Compound 28] | 0 | 0 | 0 |  |  |  | 2 |  |  |  |  |  |  |  | 0 | 0 | 4 | 3 (75% of growth compared to untreated control) | 4 | 1 | 
9 | O=S1(=O)CCON=C1c1cccs1 [Compound 34] |  |  |  |  |  |  |  | 5 ppm | 5 ppm | 25 ppm | 5 ppm | 25 ppm | 2.5 ppm | 25 ppm |  |  |  |  |  |  | MIC (ppm) against G. candidum [1]: 25 ppm; MIC (ppm) against P. purpurogenum [1]: 10 ppm; MIC (ppm) against P. variotii [1]: 25 ppm; MIC (ppm) against P. violacea [1]: 25 ppm; MIC (ppm) against S. atra [1]: 5 ppm; MIC (ppm) against S. entoxylina [1]: 5 ppm; MIC (ppm) against T. viride [1]: >25 ppm; MIC (ppm) against U. atrum [1]: 25 ppm
